Laboratory results taken from PMC9436859, “Chromatographic separation of glycated peptide isomers derived from glucose and fructose” (Analytical and Bioanalytical Chemistry, 2022).
Values belong to the substance of their own block, whether it stands above or below them.

Experiments:
Format in all cases: physicochemical
[1] = RP-HPLC retention at neutral pH, Aqua C18, sodium phosphate; settings: Aqua C18 (3 µm, 125 Å), sodium phosphate 10 mmol/L pH 7.2, 0.6% acetonitrile/min, 60 °C, UV 214 nm, mixture of family #2, order from individual injections
Procedure: (§1) Separations used either a Synergi Fusion-RP C18 column (ID: 2 mm, length: 150 mm, particle size: 4 µm, pore size: 80 Å, Phenomenex) or Aqua C18 column (ID: 2 mm, length: 150 mm, particle size: 3 µm, pore size: 125 Å, Phenomenex) using a System Gold HPLC equipped with a 507e autosampler (100 µL injection volume), a 125NM binary gradient pump, and a 166 UV/VIS detector. Eluents were water (eluent B1) and aqueous acetonitrile (60% v/v, eluent B2 or 40% v/v, eluent B3) containing sodium or potassium phosphate buffer or ammonium acetate (10 mmol/L). Eluents were prepared from aqueous stock solutions (0.1 mol/L) adjusted to pH 7.2, in case of ammonium acetate with ammonia. Solvents were filtered (pore size, 0.2 µm; Pall Corp., Ann Arbor, MI) and sonicated for 15 min prior to use. Peptides were eluted using a linear acetonitrile gradient from either 5 to 95% eluent B2 in 30 min, 5 to 70% eluent B2 in 65 min, or 7.5 to 95% eluent B3 in 58 min. Unless otherwise indicated, separations were performed at 60 °C with a flow rate of 0.2 mL/min and the absorbance was recorded at 214 nm. Fractions were analyzed by matrix-assisted laser desorption/ionization time-of-flight MS (MALDI-TOF/TOF–MS) on a 5800 proteomic analyzer (ABSciex GmbH, Darmstadt, Germany) operating in reflector mode and using a solution of α-cyano-4-hydroxycinnamic acid (4 g/L) in eluent A2 as matrix.

[2] = RP-HPLC retention at neutral pH, Synergi Fusion RP, potassium phosphate; settings: potassium phosphate 10 mmol/L pH 7.2, 60 °C, UV 214 nm; for retention time (tr): Synergi Fusion RP, family #2 mixture (Fig. S10)
Procedure: as §1

[3] = IP-RP-HPLC retention, Jupiter C18, 0.1% TFA; settings: 60 °C, UV 214 nm
Procedure: Separations used a Jupiter C18 column (ID: 2 mm, length: 150 mm, particle size: 5 µm, pore size: 300 Å, Phenomenex) and a System Gold HPLC equipped with a 508 autosampler (100 µL injection volume), a 125NM binary gradient pump, and a UV detector (Knauer GmbH, Berlin, Germany). Eluents were 0.1% (v/v) TFA (eluent A1) and 60% (v/v) aqueous acetonitrile containing 0.1% (v/v) TFA (eluent A2). Peptides were eluted using a linear acetonitrile gradient from either 5 to 95% eluent A2 in 30 min or 5 to 60% eluent A2 in 55 min. Separations were performed at a column temperature of 60 °C with a flow rate of 0.2 mL/min, and the absorbance was recorded at 214 nm. Separations were performed twice with deviations of the retention times of ~ 0.2 min for the shallow gradient.

[4] = RP-HPLC retention at neutral pH, Synergi Fusion RP, sodium phosphate; settings: linear 65-min gradient 3 to 42% acetonitrile, sodium phosphate 10 mmol/L pH 7.2, 60 °C, UV 214 nm, family mixture
Procedure: as §1

[5] = nanoUPLC-ESI-Orbitrap-MS retention, BEH C18, 0.1% formic acid; settings: nanoRP-UPLC, 30 °C, XIC; for retention time (tr): Acquity BEH C18 (1.7 µm), 87-min gradient 3 to 40% acetonitrile, glycated peptide mixture, 500 fmol each, glucated peptide or glucosyl-lysine species of the fructated peptide; for retention time (tr), mannosyl-lysine species: Acquity BEH C18, 87-min gradient 3 to 40% acetonitrile, second peak of the fructated peptide (mannosyl-lysine)
Procedure: Peptides were analyzed on a nanoAcquity UPLC (Waters GmbH) coupled on-line to an LTQ Orbitrap XL ETD mass spectrometer equipped with a nano-ESI source (Thermo Fisher Scientific GmbH, Bremen, Germany) operated in positive ion mode. Eluents were aqueous formic acid (0.1% v/v; eluent D1) and acetonitrile-containing formic acid (0.1% v/v; eluent D2). Peptides (10 µL, 500 fmol each) were trapped on a nanoAcquity Symmetry C18 column (ID: 180 μm, length: 2 cm, particle diameter: 5 μm) at a flow rate of 5 μL/min (3% eluent D2). Separation was achieved on a BEH 130 column (C18 phase, ID: 75 μm, length: 10 cm, particle diameter: 1.7 μm) using a flow rate of 0.4 μL/min and a column temperature of 30 °C. Peptides were eluted with two linear gradients from 3 to 40% eluent D2 in 87 min and then to 85% eluent D2 in 5 min. The transfer capillary temperature was set to 200 °C, and an ion spray voltage of 1.4 kV was applied to a PicoTip™ on-line nano-ESI emitter (New Objective, Berlin, Germany). Mass spectra (m/z range 400 to 2000) were recorded in the Orbitrap mass analyzer at a resolution of 60,000 at m/z 400. Tandem mass spectra were acquired in CID mode (isolation width 2 m/z units, normalized collision energy 35%, activation time 30 ms, default charge state 2, intensity threshold of 500 counts) using data-dependent acquisition (DDA) for the six most intense signals with a dynamic exclusion window of 60 s.

[6] = Jupiter C18, 0.1% TFA, 0.6% acetonitrile/min, family injected as a mixture (Fig. S3F)

Substance: ADLAKAmaYIC*ENQDSISSK [2B, glucated (Amadori) tryptic peptide HSA A258-K274, K262]
retention time (tr) [1]: 38.0 min
retention time (tr) [2]: 32.9 min

Substance: ADLAKHeyYIC*ENQDSISSK [2C, fructated (Heyns) tryptic peptide HSA A258-K274, K262]
retention time (tr) [1]: 36.5 min
retention time (tr) [2]: 31.4 min

Substance: AEFAEVSKAmaLVTDLTK [6B, glucated (Amadori) tryptic peptide HSA A226-K240, K233]
retention time [3, 6]: 52.2 min
retention time (tr) [4]: 45.3 min
retention time (tr) [5]: 56.0 min

Substance: AVGDKHeyLPEC*EAVC*GKPK [1C, fructated (Heyns) tryptic peptide HP A77-K93, glycation site K81]
retention time ([3]; Jupiter C18 (5 µm, 300 Å), 0.1% TFA, 5 to 60% eluent A2 in 55 min (0.6% acetonitrile/min), 0.2 mL/min, performed twice, deviations ~0.2 min): 27.6 min
acetonitrile content at elution ([3]; Jupiter C18, 0.1% TFA, 0.6% acetonitrile/min): ~ 13%

Substance: TC*VADESAENC*DKHeySLHTLFGDK [3C, fructated (Heyns) tryptic peptide HSA T52-K73, K64]
retention time ([2]; new Synergi Fusion RP column, 58-min gradient 3 to 38% acetonitrile (eluent B3, 0.6%/min)): 26.2 min

Results, then the substance that gave them:

retention time [3, 6]: 51.9 min
retention time (tr) [4]: 43.4 min
retention time (tr) [5]: 55.7 min
retention time (tr), mannosyl-lysine species [5]: 56.3 min
Substance: AEFAEVSKHeyLVTDLTK [6C, fructated (Heyns) tryptic peptide HSA A226-K240, K233]

retention time (tr) [5]: 59.5 min
Substance: EQLKAmaAVMDDFAAFVEK [7B, glucated (Amadori) tryptic peptide HSA E542-K557, K545]

retention time (tr) [5]: 59.5 min
retention time (tr), mannosyl-lysine species [5]: 60.2 min
Substance: EQLKHeyAVMDDFAAFVEK [7C, fructated (Heyns) tryptic peptide HSA E542-K557, K545]
